Results: ChEMBL document CHEMBL4680352, “Rational design and synthesis of 6-aryl-6H-benzo[c]chromenes as non-steroidal progesterone receptor antagonists for use against cancers” (Bioorg Med Chem, 2021)
pIC50: −log10 of the molar value. Active and inactive are the calls of the source. No cut-off for these calls is given here.

Tests used:
BGC-823 = experiment: Antiproliferative activity against human BGC-823 cells assessed as inhibition of cell viability after 72 hrs by CCK-8 assay; format: functional, cell-based; settings: BGC-823, 72 h
MCF7 [1] = experiment: Induction of apoptosis in human MCF7 cells assessed as increase in Bax expression at 3 to 12 uM measured after 48 hrs by Western blot analysis; format: functional, cell-based; settings: dose 3-12 µM
[2] = Selectivity index, ratio of IC50 for human MCF-10A cells to IC50 for human MCF-7 cells
MCF7 [3] = experiment: Induction of apoptosis in human MCF7 cells at 3 uM measured after 48 hrs by Annexin V-FITC and propidium iodide staining based flow cytometry (reference value: 4.88%); format: functional
MCF7 [4] = experiment: Induction of cell cycle arrest in human MCF7 cells assessed as decrease in cyclin D1 protein expression expression at 3 to 12 uM after 48 hrs by Western blot analysis; format: functional, cell-based; settings: dose 3-12 µM
PC-3 = experiment: Antiproliferative activity against human PC-3 cells assessed as inhibition of cell viability after 72 hrs by CCK-8 assay; format: functional, cell-based; settings: PC-3, 72 h
MCF7 [5] = experiment: Induction of cell cycle arrest in human MCF7 cells assessed as decrease in CDK4 protein expression at 3 to 12 uM after 48 hrs by Western blot analysis; format: functional, cell-based; settings: dose 3-12 µM
MDA-MB-231 = experiment: Antiproliferative activity against human MDA-MB-231 cells assessed as inhibition of cell viability after 72 hrs by CCK-8 assay; format: functional, cell-based; settings: MDA-MB-231, 72 h
MCF7 [6] = experiment: Antiproliferative activity against human MCF7 cells assessed as inhibition of cell viability after 72 hrs by CCK-8 assay; format: functional, cell-based; settings: MCF7, 72 h
MCF-10A = experiment: Cytotoxicity against human MCF-10A cells assessed as inhibition of cell viability after 72 hrs by CCK-8 assay; format: cell-based
MCF7 [7] = experiment: Antiproliferative activity against human MCF7 cells assessed as cell growth inhibition at 6 uM by CCK-8 assay; format: functional, cell-based; settings: time 24-72 hrs, TDE = time-dependent effect
MCF7 [8] = experiment: Induction of apoptosis in human MCF7 cells at 6 uM measured after 48 hrs by Annexin V-FITC and propidium iodide staining based flow cytometry (Rvb =4.88%); format: functional
MCF7 [9] = experiment: Decrease in Bcl-2 expression in human MCF7 cells at 3 to 12 uM measured after 48 hrs by Western blot analysis; format: functional, cell-based; settings: dose 3-12 µM
MCF7 [10] = experiment: Induction of apoptosis in human MCF7 cells at 6 uM measured after 72 hrs by Annexin V-FITC and propidium iodide staining based flow cytometry (Rvb =4.62%); format: functional
MCF7 [11] = experiment: Induction of apoptosis in human MCF7 cells assessed as increase in p53 phosphorylation at Ser15 residue at 3 to 12 uM measured after 48 hrs by Western blot analysis; format: functional, cell-based; settings: dose 3-12 µM
MCF7 [12] = experiment: Induction of apoptosis in human MCF7 cells at 6 uM measured after 24 hrs by Annexin V-FITC and propidium iodide staining based flow cytometry (Rvb =3.54%); format: functional
MCF7 [13] = experiment: Induction of apoptosis in human MCF7 cells assessed as increase in p53 expression measured at 3 to 12 uM after 48 hrs by Western blot analysis; format: functional, cell-based; settings: dose 3-12 µM
A549 = experiment: Antiproliferative activity against human A549 cells assessed as inhibition of cell viability after 72 hrs by CCK-8 assay; format: functional, cell-based; settings: A549, 72 h
MCF7 [14] = experiment: Induction of apoptosis in human MCF7 cells assessed as increase in ratio of Bax to Bcl2 level measured at 3 to 12 uM after 48 hrs by Western blot analysis; format: functional, cell-based; settings: dose 3-12 µM
MCF7 [15] = experiment: Induction of apoptosis in human MCF7 cells assessed as increase in cleaved caspase-3 level at 3 to 12 uM measured after 24 to 72 hrs by flow cytometry; format: functional, cell-based; settings: dose 3-12 µM, time 24-72 hrs
[16] = target: T1, Progesterone receptor (Homo sapiens) (UniProt P06401); experiment: Antagonist activity at PR in human T47D cells assessed as inhibition of progesterone-induced alkaline phosphatase activity by alkaline phosphatase assay; format: cell-based; settings: filed as antagonist
T1 sequence (whole entry): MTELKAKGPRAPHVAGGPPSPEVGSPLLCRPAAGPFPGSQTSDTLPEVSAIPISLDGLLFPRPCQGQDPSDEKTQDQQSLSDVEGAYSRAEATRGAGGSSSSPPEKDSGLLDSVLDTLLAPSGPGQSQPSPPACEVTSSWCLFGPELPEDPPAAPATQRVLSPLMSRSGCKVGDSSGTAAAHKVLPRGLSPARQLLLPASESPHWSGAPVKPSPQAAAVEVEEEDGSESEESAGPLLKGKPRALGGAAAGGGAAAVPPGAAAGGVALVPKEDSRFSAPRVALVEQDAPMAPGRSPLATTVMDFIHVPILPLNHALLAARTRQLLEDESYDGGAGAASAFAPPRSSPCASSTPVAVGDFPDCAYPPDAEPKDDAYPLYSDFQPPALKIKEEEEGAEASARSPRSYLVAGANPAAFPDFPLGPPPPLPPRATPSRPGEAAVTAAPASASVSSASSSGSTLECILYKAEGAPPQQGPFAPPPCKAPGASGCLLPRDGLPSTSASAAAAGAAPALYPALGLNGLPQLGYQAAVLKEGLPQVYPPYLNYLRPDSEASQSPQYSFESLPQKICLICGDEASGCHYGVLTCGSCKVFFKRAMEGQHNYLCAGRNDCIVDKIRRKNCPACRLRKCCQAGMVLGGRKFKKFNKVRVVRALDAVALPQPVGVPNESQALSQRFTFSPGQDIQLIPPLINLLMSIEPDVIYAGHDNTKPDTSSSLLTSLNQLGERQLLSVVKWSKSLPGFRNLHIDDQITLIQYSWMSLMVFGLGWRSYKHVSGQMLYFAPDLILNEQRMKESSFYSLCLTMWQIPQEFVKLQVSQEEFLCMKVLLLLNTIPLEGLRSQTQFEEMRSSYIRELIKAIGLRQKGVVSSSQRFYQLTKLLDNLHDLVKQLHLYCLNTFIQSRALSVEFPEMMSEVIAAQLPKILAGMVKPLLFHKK

MCF7 [17] = experiment: Induction of cell cycle arrest in human MCF7 cells assessed as increase in p21 protein expression after 48 hrs by Western blot analysis; format: functional, cell-based; settings: dose 3-12 µM
MCF7 [18] = experiment: Induction of apoptosis in human MCF7 cells at 12 uM measured after 48 hrs by Annexin V-FITC and propidium iodide staining based flow cytometry (Rvb =4.88%); format: functional

COc1cc2c(cc1OC)C(c1ccccc1OC)Oc1ccccc1-2 (stereo unspecified)
pIC50 (BGC-823): 5.04
Activity (MCF7 [1]): Active
Ratio IC50 [2]: 7.73
Activity (MCF7 [3]): 12.98%
Activity (MCF7 [4]): Active
pIC50 (PC-3): 5.03
Activity (MCF7 [5]): Active
pIC50 (MDA-MB-231): 5.08
pIC50 (MCF7 [6]): 5.20
pIC50 (MCF-10A): 4.31
Activity (MCF7 [7]): Tde
Activity (MCF7 [8]): 18.87%
inhibition (MCF7 [9]): Active
Activity (MCF7 [10]): 34.38%
Activity (MCF7 [11]): Active
Activity (MCF7 [12]): 11.91%
Activity (MCF7 [13]): Active
pIC50 (A549): 4.88
Activity (MCF7 [14]): Active
Activity (MCF7 [15]): Active
inhibition [16]: Active
Activity (MCF7 [17]): Dose-dependent effect
Activity (MCF7 [18]): 31.22%

COc1ccccc1C1Oc2ccccc2-c2cc(OCc3ccccc3)c(OCc3ccccc3)cc21 (stereo unspecified)
pIC50 (BGC-823): 5.11
Activity (MCF7 [1]): Active
Ratio IC50 [2]: 8.98
Activity (MCF7 [3]): 11.71%
Activity (MCF7 [4]): Active
pIC50 (PC-3): 5.12
Activity (MCF7 [5]): Active
pIC50 (MDA-MB-231): 5.04
pIC50 (MCF7 [6]): 5.24
pIC50 (MCF-10A): 4.29
Activity (MCF7 [7]): Tde
Activity (MCF7 [8]): 22.97%
inhibition (MCF7 [9]): Active
Activity (MCF7 [10]): 36.93%
Activity (MCF7 [11]): Active
Activity (MCF7 [12]): 13.95%
Activity (MCF7 [13]): Active
pIC50 (A549): 5.00
Activity (MCF7 [14]): Active
Activity (MCF7 [15]): Active
inhibition [16]: Active
Activity (MCF7 [17]): Dose-dependent effect
Activity (MCF7 [18]): 32.56%
